Data published in US9598393B2, “Structural variants of mycolactones for use in modulating inflammation, immunity and pain” (priority 2011, dated 2017).
pIC50: −log10 of the molar value. Read-outs that look alike come from different tables or passages of the source.

Assays:
[1] = tested on: IL-2 production by Jurkat T cells; assay: Immunosuppressive activity: activation-induced IL-2 production, ELISA; assay type: cell-based, human; details: for Cytokine production (M.A.: mean absorbance) (C) % relative to control / pIC50: Jurkat T cells; for Cytokine production (M.A.: mean absorbance) (C) % relative to control: PMA + calcium ionophore, IL-2 ELISA; for pIC50: IL-2, % inhibition relative to control, read-out: Cytokine production (C): IC50 value (concentration at which the compound induces 50% of mycolactone maximal activity); for Cytokine production (C): corresponding % of mycolactone activity (in brackets): relative to mycolactone (100%)
Method: (C) The immunosuppressive activity of mycolactone and variants was measured on Jurkat T cells (ATCC®; TIB-152™ clone E6-1), as models of human T lymphocytes. Cells were inoculated in 96-well plates (5×10^5 cells/well in RPMI 1640 medium supplemented with 10% fetal calf serum and 2 mM L-Glutamine) then incubated with serial dilutions of the various compounds for 4 h, and stimulated for 20 h with 50 ng/ml phorbol-12-myristate-13-acetate (PMA) and 1 μg/ml calcium ionophore. The production of IL-2 was then assessed in culture supernatants by ELISA.

[2] = tested on: epithelial HeLa cell line; assay: Cytopathic activity, MTT assay (effect on global cell metabolic activity); assay type: cell-based, human; details: for Metabolic activity (MA: mean absorbance) (A) % relative to control / pIC50: HeLa cells, 48 h, MTT; for pIC50: % inhibition relative to control, read-out: Metabolic activity (A): IC50 value (concentration at which the compound induces 50% of mycolactone maximal activity); for Metabolic activity (A): corresponding % of mycolactone activity (in brackets): relative to mycolactone (100%)
Method: (A) The cytopathic activity of mycolactone and variants was assessed in a [3-(4,5-Dimethylthiazol-2-yl)-2,5-Diphenyltetrazolium Bromide] (MTT) assay, using the epithelial HeLa cell line (ATCC®; CCL-2) as a model. Briefly, HeLa cells were plated in 96-well plates (10^4 cells/well) in Dulbecco's Modified Eagle culture medium supplemented with 10% fetal calf serum and 2 mM L-Glutamine. After 16 h, mycolactone or variants dilutions (final concentration 0.4-8 μM) were added to the wells, and incubated with the cells for 48 h, prior to the addition of MTT at 50 μg/ml. After 4 h, culture supernatants were removed and the formed formazan crystals dissolved in dimethyl sulfoxide (DMSO) for absorbance measurement.

[3] = tested on: CD62-L receptor expression by human peripheral blood cells (PBLs); assay: T cell homing: expression of CD62-L receptor, flow cytometry; assay type: cell-based; details: for CD62-L expression (MFI: mean fluorescence intensity) (D) % relative to control / pIC50: human PBLs, 72 h; for pIC50: % inhibition relative to control, read-out: CD62-L expression (D): IC50 value (concentration at which the compound induces 50% of mycolactone maximal activity); for CD62-L expression (D): corresponding % of mycolactone activity (in brackets): relative to mycolactone (100%)
Method: (D) The effect of mycolactone and variants on T cell homing was assessed through their inhibitory effect on the expression of CD62-L receptor by human peripheral blood cells (PBLs). Human PBLs were isolated from total blood by Ficoll density gradient centrifugation. They were incubated in 96-well plates (10^5 cells/well in RPMI 1640 medium supplemented with 10% fetal calf serum and 2 mM L-Glutamine) with mycolactone or variant for 72 h. Cells were then fixed for 20 min in 4% paraformaldehyde (PFA) and stained with an anti-CD62-L antibody coupled with phycoerythrin in a solution of PBS, BSA 0.5%, saponin 0.05%, then analysed by flow cytometry.

HeLa cell = assay: Cytotoxicity by Trypan Blue dye exclusion (cell viability); assay type: cell-based, human
Method: (B) HeLa cell death being negligible in the concentration and time frame conditions used in (A), the cytotoxicity of 16 μM mycolactone and variants was evaluated after 48 h of incubation by cell exclusion of the Trypan Blue dye. Here, one part of Trypan blue (0.4% in phosphate-buffered saline PBS) was mixed with one part cell suspension (recovered from cell culture wells by trypsin treatment). The mixture was incubated for 3 min at room temperature and unstained (viable) and stained (nonviable) cells counted separately with a hemacytometer.

Row | Compound | Cytokine production (M.A.: mean absorbance) (C) % relative to control ([1]; 0.4 μM) | Cytokine production (M.A.: mean absorbance) (C) % relative to control ([1]; 4 μM) | Cytokine production (M.A.: mean absorbance) (C) % relative to control ([1]; 8 μM) | pIC50 [1] | Cytokine production (C): corresponding % of mycolactone activity (in brackets) [1] | Metabolic activity (MA: mean absorbance) (A) % relative to control ([2]; 0.4 μM) | Metabolic activity (MA: mean absorbance) (A) % relative to control ([2]; 4 μM) | Metabolic activity (MA: mean absorbance) (A) % relative to control ([2]; 8 μM) | pIC50 [2] | Metabolic activity (A): corresponding % of mycolactone activity (in brackets) [2] | CD62-L expression (MFI: mean fluorescence intensity) (D) % relative to control ([3]; 4 μM) | CD62-L expression (MFI: mean fluorescence intensity) (D) % relative to control ([3]; 8 μM) | CD62-L expression (D): corresponding % of mycolactone activity (in brackets) [3] | pIC50 ([1]; Homo sapiens) | cytopathic activity compared to compound 20a [2] | pIC50 ([2]; Homo sapiens) | cytotoxic activity compared to compound 20a (HeLa cell) | pIC50 ([3]; T-cell) | also measured
1 | 2,2-difluoro-4,6,10,12-tetramethyl-8-(4-{1-[(2S)-2-[(2R,4E,7S,8S)-7-methyl-12-oxo-8-{[(2E,4E,6E,8E,10E,12S,13S,15S)-12,13,15-trihydroxy-4,6,10-trimethylhexadeca-2,4,6,8,10-pentaenoyl]oxy}-1-oxacyclododec-4-en-2-yl]propyl]-1H-1,2,3-triazol-4-yl}butyl)-1λ^5,3-diaza-2λ^4-boratricyclo[7.3.0.0^3,7]dodeca-1(12),4,6,8,10-pentaen-1-ylium [Compound 28] | 20% | 50% | 70% | 5.40 | 2.5% | 0% | 20% | 35% | < 4.80 | < 20% |  |  |  |  |  |  |  |  | 
2 | 2,2-difluoro-8-(4-{1-[(2S)-2-[(2R,4E,7S,8S)-8-hydroxy-7-methyl-12-oxo-1-oxacyclododec-4-en-2-yl]propyl]-1H-1,2,3-triazol-4-yl}butyl)-4,6,10,12-tetramethyl-1λ^5,3-diaza-2λ^4-boratricyclo[7.3.0.0^3,7]dodeca-1(12),4,6,8,10-pentaen-1-ylium [Compound 29] | 18% | 70% | 95% | 5.52 | 3.3% | 0% | 30% | 40% | 4.80 | 20% | 100% | 100% | 1.5% |  |  |  |  |  | pIC50 [3]: 5.70
3 | CC(=C/C=C/C(C)=C/C[C@@H](O)CC(C)O)C=C(C)/C=C/C(=O)O[C@H]1CCCC(=O)O[C@@H]([C@@H](C)C/C(C)=C/[C@@H](C)[C@H](O)C[C@@H](C)O)C/C=C/C[C@@H]1C (stereo in doubt) [Compound 20d, (6S,7S,9E,12R)-12-[(2S,4E,6R,7R,9R)-7,9-dihydroxy-4,6-dimethyldec-4-en-2-yl]-7-methyl-2-oxo-1-oxacyclododec-9-en-6-yl(2E,4E,6E,8E,10E,13R,15R)-13,15-dihydroxy-4,6,10-trimethylhexadeca-2,4,6,8,10-pentaenoate] | 12% | 30% | 55% |  | 1.4% | 0% | 20% | 25% |  | < 20% | 0% | 0% |  | 5.14 | significantly reduced | < 4.80 | significantly reduced |  | 
4 | CC(=C/C=C/C(C)=C/[C@@H](O)[C@H](O)C[C@@H](C)O)C=C(C)/C=C/C(=O)O[C@H]1CCCC(=O)O[C@@H]([C@@H](C)C/C(C)=C/[C@@H](C)[C@H](O)C[C@@H](C)O)C/C=C/C[C@@H]1C (racemic) [Compound 20c, (6S,7S,9E,12R)-12-[(2 S,4E,6R,7R,9R)-7,9-dihydroxy-4,6-dimethyldec-4-en-2-yl]-7-methyl-2-oxo-1-oxacyclododec-9-en-6-yl(2E,4E,6E,8E,10E,12R,13R,15R)-12,13,15-trihydroxy-4,6,10-trimethylhexadeca-2,4,6,8,10-pentaenoate] | 18% | 35% | 65% |  | 1.5% | 0% | 20% | 25% |  | < 20% | 0% | 10% | < 0.2% | 5.19 | significantly reduced | < 4.80 | significantly reduced | < 4.80 | 
5 | C/C(=C\[C@@H](C)[C@H](O)C[C@@H](C)O)C[C@H](C)[C@H]1C/C=C/C[C@H](C)[C@@H](O)CCCC(=O)O1 [Compound 11c, (6 S,7 S,9E,12R)-12-[(2S,4E,6R,7R,9R)-7,9-dihydroxy-4,6-dimethyldec-4-en-2-yl]-6-hydroxy-7-methyl-1-oxacyclododec-9-en-2-one] | 0% | 30% | 50% |  | 1.2% | 0% | 30% | 40% |  | 20% | 20% | 40% | 0.2% | 5.10 |  | 4.80 |  | 4.80 | inhibition of CD62-L expression by lymphocytes [3]: significant inhibition; inhibition of IL-2 production by lymphocytes [1]: significant inhibition; effect on the metabolic activity of HeLa cells [2]: showed inhibitory effect; cytotoxicity (HeLa cell; in the conditions tested): not cytotoxic
6 | CC(=C/C=C/C(C)=C/[C@H](O)[C@@H](O)C[C@H](C)O)C=C(C)/C=C/C(=O)O[C@H]1CCCC(=O)O[C@@H]([C@@H](C)C/C(C)=C/[C@@H](C)[C@H](O)C[C@@H](C)O)C/C=C/C[C@@H]1C (racemic) [Compound 20a, (6S,7S,9E,12R)-12-[(2S,4E,6R,7R,9R)-7,9-dihydroxy-4,6-dimethyldec-4-en-2-yl]-7-methyl-2-oxo-1-oxacyclododec-9-en-6-yl(2E,4E,6E,8E,10E,12S,13S,15S)-12,13,15-trihydroxy-4,6,10-trimethylhexadeca-2,4,6,8,10-pentaenoate] | 0% | 40% | 70% |  | 1.6% | 0% | 10% | 30% |  | 25% |  |  |  | 5.22 |  | 4.85 |  |  | cytopathic activity, reduction compared to mycolactones A/B ([2]; human): 4 fold; cytotoxicity compared to mycolactones A/B (HeLa cell; at 16 μM): equivalent cytotoxicity
